In PMC4233179 (Molecular cancer research : MCR, 2014):

Target: T1, NEDD4-1 (Homo sapiens, UniProt P46934)
T1 sequence (P46934 1-1319): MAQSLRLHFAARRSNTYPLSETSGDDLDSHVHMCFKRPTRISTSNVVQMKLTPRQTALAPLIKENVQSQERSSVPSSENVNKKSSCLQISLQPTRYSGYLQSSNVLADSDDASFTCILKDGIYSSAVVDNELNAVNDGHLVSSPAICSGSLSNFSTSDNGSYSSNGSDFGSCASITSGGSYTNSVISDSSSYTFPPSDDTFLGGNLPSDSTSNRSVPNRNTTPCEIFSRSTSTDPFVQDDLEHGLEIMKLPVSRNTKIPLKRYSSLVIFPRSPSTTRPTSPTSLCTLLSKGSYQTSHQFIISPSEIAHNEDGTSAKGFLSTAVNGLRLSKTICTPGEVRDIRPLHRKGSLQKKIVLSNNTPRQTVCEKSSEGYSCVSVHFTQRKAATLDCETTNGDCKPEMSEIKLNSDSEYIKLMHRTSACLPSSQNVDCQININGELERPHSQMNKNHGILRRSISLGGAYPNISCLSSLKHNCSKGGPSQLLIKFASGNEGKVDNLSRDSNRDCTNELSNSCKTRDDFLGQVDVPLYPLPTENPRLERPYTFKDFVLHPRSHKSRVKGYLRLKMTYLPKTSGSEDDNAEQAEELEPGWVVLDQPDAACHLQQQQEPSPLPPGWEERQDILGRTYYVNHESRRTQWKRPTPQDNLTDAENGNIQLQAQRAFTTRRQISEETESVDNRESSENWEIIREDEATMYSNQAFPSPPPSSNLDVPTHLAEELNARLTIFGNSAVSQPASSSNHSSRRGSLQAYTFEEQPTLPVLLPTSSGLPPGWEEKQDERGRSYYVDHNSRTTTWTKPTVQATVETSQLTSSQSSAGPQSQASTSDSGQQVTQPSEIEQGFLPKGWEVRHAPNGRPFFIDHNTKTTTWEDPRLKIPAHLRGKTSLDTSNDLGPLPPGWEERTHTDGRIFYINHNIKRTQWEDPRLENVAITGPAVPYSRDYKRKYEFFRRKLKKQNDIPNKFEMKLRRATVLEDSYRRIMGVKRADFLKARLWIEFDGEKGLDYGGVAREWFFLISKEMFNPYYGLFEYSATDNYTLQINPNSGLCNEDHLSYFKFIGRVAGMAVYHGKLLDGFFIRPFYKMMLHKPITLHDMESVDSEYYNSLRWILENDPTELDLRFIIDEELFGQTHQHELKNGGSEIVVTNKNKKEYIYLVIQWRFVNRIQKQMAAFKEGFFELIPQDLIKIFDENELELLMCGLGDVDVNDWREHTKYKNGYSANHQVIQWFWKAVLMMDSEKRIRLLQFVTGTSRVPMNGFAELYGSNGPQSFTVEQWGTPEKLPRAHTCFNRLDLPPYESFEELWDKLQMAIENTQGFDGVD
Experiment: isothermal titration calorimetry
Type: binding

Kd: ~88.1 µM
Compound: OCc1c[nH]c2ccccc12 [I3C, indole-3-carbinol]
